The text below walks through data of US20070015183A1, “Biomarkers for huntington's disease” (The General Hospital Corporation, priority 2005, published 2007).

For data set [1] the following is noted: HD patients, as a result of phenylbutyrate treatments. An excerpt:
(§1) Peripheral blood samples were collected from 62 HD subjects and 53 age- and gender-matched healthy controls. The HD group included a cohort of 9 early asymptomatic carriers of the gene mutation, as determined by genetic testing, consisting of 5 females and 4 males with the average age of 22.5±2.6 years. An additional group of 21 late presymptomatic carriers of the HD mutation was also included in the study. Of these, 11 were females and 10 were males with the average age of 39±6.1. An additional 32 patients were symptomatic, 17 females and 15 males, with the average age of 49.6±5.9. The determination of the neurological status of the HD patients utilized the Huntington's Disease Rating Scale (UHDRS) performed by an experienced HD neurologist. All of the symptomatic patients were in Stage I or II of disease, as determined by the total functional capacity scores (TFC 7-12). All samples were obtained in accordance with the Institutional Review Boards and participants gave written informed consent. Blood samples were also obtained from 12 symptomatic patients (7 males and 5 females) participating in a dose-finding study of the HDAC inhibitor, sodium phenylbutyrate (SPB 11, Scandinavian Designs, Sellersville, Pa.) at Oregon Health and Science University. The dosage of sodium phenylbutyrate in these subjects ranged from 12 to 18 grams per day administered in 3 doses.

Data set [2] has as its system 12-gene marker set (ANXA1, AXOT, CAPZA1, HIF1A, JJAZ1, P2Y5, PCNP, ROCK1, SF3B1, SP3, TAF7, YIPPEE) mRNA in blood. The settings on record: 12 HD patients, after 4 weeks of treatment, QRT-PCR, P<0.05.
Text: as §1

The subject of data set [3] is Huntington's disease symptoms. The settings on record: HD patients, dose-finding study not powered to detect alterations in symptoms or progression.
Text: as §1

Data set [4] relates to transgenic mouse models of HD. The settings on record: Gardian et al., J. Biol. Chem. 280: 556-563, 2005; cited from earlier work.

Turning to `O=C([O-])CCCc1ccccc1.[Na+]` [phenylbutyrate, sodium phenylbutyrate], the “total and differential cell blood counts” value in data set [1] is on record as “no consistent differences”. The “expression of each individual gene of the marker set in blood after treatment compared to untreated samples” value in data set [2] is 8 out of 12 genes were significantly decreased and statistically significant decrease in expression of 8 out of 12 genes. The symptomatic effects result in data set [3] is reported as “no significant symptomatic effects”. For the same molecule, the neuroprotective effects entry in data set [4] was “significant neuroprotective effects”.
